Blank lines part the entries; values can stand above or below the molecule they belong to.
Assays:
[1] = molecular target: T1, FGFR2 (Homo sapiens, UniProt P21802); assay: ADP-Glo kinase inhibition assay, FGFR2; format: biochemical; settings: kinase activity, 10 μM ATP, n = 3
T1 construct: FGFR2 (residues 453−770); 6×His (N, cleaved yes); made in house; host or cells: E. coli BL21 (DE3), co-expressed with YOPH

[2] = molecular target: T2, FGFR1 (Homo sapiens, UniProt P11362); assay: ADP-Glo kinase inhibition assay, FGFR1; format: biochemical; settings: kinase activity, 10 μM ATP, n = 3
T2 construct: human FGFR1 (residues 456−765); 6×His (N, cleaved yes); made in house; host or cells: E. coli BL21 (DE3), co-expressed with YOPH

[3] = molecular target: T3, YES (Homo sapiens, UniProt P07947); assay: ADP-Glo kinase inhibition assay, YES; format: biochemical; settings: for IC50: kinase activity, ADP-Glo, 10 μM ATP, n = 3
T3 construct: purchased Carna 08-175
Method: (§1) FGFRs, SRC and HCK were prepared as previously described[31]–[33]. […] The primers were synthesized by Tsingke Biotechnolog Co., Ltd., and the sequences were listed in Supplementary Table 2. Then plasmid was transfected into E. coli BL21 (DE3) cells and co-expressed with YOPH to get the non-phosphorylated proteins. Cells were grown in LB at 37 °C and induced for 16 h with 0.5 mM IPTG at 18 °C. Cells were harvested by centrifugation for next purification. All steps of purification were performed at 4 °C. Proteins were first purified by Ni-NTA affinity chromatography, and then 6×His tag was removed by PreScission or TEV protease. […] Anion exchange chromatography (Mono Q) and size exclusion chromatography (SEC) were exploited for further purification. The purified FGFRs proteins were stored in the buffer containing 20 mM tris-HCl pH 8.0, 150 mM NaCl, and 1 mM TCEP, while SRC and HCK proteins in the buffer containing 20 mM tris-HCl pH 8.0, 150 mM NaCl, 5% (v/v) glycerol, and 1 mM TCEP. The purified proteins were concentrated to about 5–15 mg/mL and stored at −80 °C for subsequent studies.
(§2) The ADP-Glo^TM Kinase Assay Kit (Part No #V9101) was purchased from Promega. The experiments were performed according to the manufacturer’s instructions. All kinase inhibition assays were performed with optimized kinase assay buffer consisting of 40 mM Tris-HCl (pH ranging from 7.5 to 8.0), 20 mM MgCl2, 20 mM NaCl, 0.1 mg/mL BSA, 1 mM TCEP, and 4% DMSO[34]. […] Second, 5×ATP plus poly (4:1 Glu, Tyr) peptides (abcam, Part No #ab204877) were added to start the kinase reactions. The final reaction consisted of 0.04 μM kinase, 50 μM Tyr4 peptide and 10 μM ATP in kinase buffer. Then the reactions were terminated by the addition of stop buffer ADP-Glo after half an hour of incubation. […] Finally, […] was measured on a multimode plate reader (Perkin-Elmer) after the addition of detection reagent for half an hour to one hour. IC50 values were determined using a three-parameter log [Inhibitor] versus response model in GraphPad Prism software.

[4] = molecular target: T4, SRC(C277A) (Gallus gallus, UniProt P00523, C277A); assay: ADP-Glo kinase inhibition assay, SRC(C277A); format: biochemical, chicken; settings: for IC50: kinase activity, ADP-Glo, 10 μM ATP, n = 3
T4 construct: chicken SRC (residues 251−533); made in house; host or cells: E. coli BL21 (DE3), co-expressed with YOPH
Method: as §1, §2

[5] = molecular target: T5, FGFR4 (Homo sapiens, UniProt P22455); assay: ADP-Glo kinase inhibition assay, FGFR4; format: biochemical; settings: kinase activity, 10 μM ATP, n = 3
T5 construct: FGFR4 (residues 445−753); 6×His (N, cleaved yes); made in house; host or cells: E. coli BL21 (DE3), co-expressed with YOPH
Method: as §1, with “The purified proteins were concentrated to about 5–15 mg/mL and stored at −80 °C for subsequent studies.” left out
(§3) The ADP-Glo^TM Kinase Assay Kit (Part No #V9101) was purchased from Promega. […] Finally, […] was measured on a multimode plate reader (Perkin-Elmer) after the addition of detection reagent for half an hour to one hour. IC50 values were determined using a three-parameter log [Inhibitor] versus response model in GraphPad Prism software.

[6] = molecular target: T6, SRC (Gallus gallus, UniProt P00523); assay: MALDI-TOF MS covalent adduct formation, SRC; format: binding, chicken; settings: protein:inhibitor 1:2, overnight, 4 °C
T6 construct: chicken SRC (residues 251−533); 6×His (N, cleaved yes); made in house; host or cells: E. coli BL21 (DE3), co-expressed with YOPH
Method: as §1

[7] = molecular target: T7, FGFR2(V564F) (Homo sapiens, UniProt P21802, V564F); assay: ADP-Glo kinase inhibition assay, FGFR2(V564F) gatekeeper mutant; format: biochemical
T7 construct: FGFR2 (residues 453−770); 6×His (N, cleaved yes); made in house; host or cells: E. coli BL21 (DE3), co-expressed with YOPH

[8] = molecular target: T8, FGFR4(V550L) (Homo sapiens, UniProt P22455, V550L); assay: ADP-Glo kinase inhibition assay, FGFR4(V550L) gatekeeper mutant; format: biochemical; settings: for IC50: kinase activity, ADP-Glo, 10 μM ATP, n = 3
T8 construct: FGFR4 (residues 445−753); 6×His (N, cleaved yes); made in house; host or cells: E. coli BL21 (DE3), co-expressed with YOPH

[9] = molecular target: T9, FGFR3(V555M) (Homo sapiens, UniProt P22607, V555M); assay: ADP-Glo kinase inhibition assay, FGFR3(V555M) gatekeeper mutant; format: biochemical
T9 construct: FGFR3 (residues 450−758); 6×His (N, cleaved yes); made in house; host or cells: E. coli BL21 (DE3), co-expressed with YOPH

[10] = molecular target: T10, FGFR3 (Homo sapiens, UniProt P22607); assay: ADP-Glo kinase inhibition assay, FGFR3; format: biochemical; settings: kinase activity, 10 μM ATP, n = 3
T10 construct: FGFR3 (residues 450−758); 6×His (N, cleaved yes); made in house; host or cells: E. coli BL21 (DE3), co-expressed with YOPH
Method: as §1, with “The purified proteins were concentrated to about 5–15 mg/mL and stored at −80 °C for subsequent studies.” left out
as §3

[11] = molecular target: T6, SRC; assay: ADP-Glo kinase inhibition assay, SRC; format: biochemical, chicken; settings: for IC50: kinase activity, ADP-Glo, 10 μM ATP, n = 3
Method: as §1, §2

[12] = molecular target: T11, HCK (Homo sapiens, UniProt P08631); assay: ADP-Glo kinase inhibition assay, HCK; format: biochemical; settings: kinase activity, 10 μM ATP, n = 3
T11 construct: human HCK (residues 247−526); 6×His (N, cleaved yes); made in house; host or cells: E. coli BL21 (DE3), co-expressed with YOPH
Method: as §1, with “The purified proteins were concentrated to about 5–15 mg/mL and stored at −80 °C for subsequent studies.” left out
as §3

[13] = molecular target: T12, FGFR1(V561M) (Homo sapiens, UniProt P11362, V561M); assay: ADP-Glo kinase inhibition assay, FGFR1(V561M) gatekeeper mutant; format: biochemical; settings: kinase activity, 10 μM ATP, n = 3
T12 construct: human FGFR1 (residues 456−765); 6×His (N, cleaved yes); made in house; host or cells: E. coli BL21 (DE3), co-expressed with YOPH

[14] = test system: FGFR gatekeeper mutations; settings: cited from earlier work
[15] = test system: advanced solid tumors; settings: pretreated patients with advanced solid tumors, phase 1 dose-escalation; cited from earlier work
[16] = kinase activity, ADP-Glo, 10 μM ATP, n = 3

T8 sequence (P22455 445-753 V550L): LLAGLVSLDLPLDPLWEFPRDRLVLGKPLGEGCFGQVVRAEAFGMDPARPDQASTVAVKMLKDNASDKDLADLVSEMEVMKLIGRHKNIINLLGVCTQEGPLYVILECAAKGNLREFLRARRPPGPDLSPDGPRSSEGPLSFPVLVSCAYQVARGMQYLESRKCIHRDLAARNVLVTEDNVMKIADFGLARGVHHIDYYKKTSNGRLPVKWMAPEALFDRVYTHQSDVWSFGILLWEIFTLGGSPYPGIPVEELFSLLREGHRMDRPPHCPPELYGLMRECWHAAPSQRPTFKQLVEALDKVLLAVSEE
T3 sequence (P07947 whole entry): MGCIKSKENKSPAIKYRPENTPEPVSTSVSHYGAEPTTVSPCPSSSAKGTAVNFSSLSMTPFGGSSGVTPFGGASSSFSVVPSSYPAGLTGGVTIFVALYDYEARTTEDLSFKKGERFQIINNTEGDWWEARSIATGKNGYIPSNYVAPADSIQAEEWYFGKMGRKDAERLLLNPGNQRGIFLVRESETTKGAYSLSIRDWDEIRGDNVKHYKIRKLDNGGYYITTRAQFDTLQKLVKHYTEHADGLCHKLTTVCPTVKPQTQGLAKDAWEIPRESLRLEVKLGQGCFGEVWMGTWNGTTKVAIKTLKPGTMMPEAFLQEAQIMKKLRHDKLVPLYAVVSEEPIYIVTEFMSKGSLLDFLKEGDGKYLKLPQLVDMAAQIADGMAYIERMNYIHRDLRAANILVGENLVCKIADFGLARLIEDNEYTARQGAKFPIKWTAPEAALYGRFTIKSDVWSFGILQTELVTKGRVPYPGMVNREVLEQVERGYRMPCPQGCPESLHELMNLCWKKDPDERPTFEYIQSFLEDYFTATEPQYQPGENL
T11 sequence (P08631 247-526): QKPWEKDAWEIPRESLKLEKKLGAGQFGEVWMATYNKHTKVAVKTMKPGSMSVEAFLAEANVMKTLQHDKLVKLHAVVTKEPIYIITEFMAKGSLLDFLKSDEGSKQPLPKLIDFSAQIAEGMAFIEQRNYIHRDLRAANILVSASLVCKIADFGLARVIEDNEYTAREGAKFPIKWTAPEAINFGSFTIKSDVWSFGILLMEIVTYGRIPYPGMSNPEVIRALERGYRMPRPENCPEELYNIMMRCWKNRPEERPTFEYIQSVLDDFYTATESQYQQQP
T9 sequence (P22607 450-758 V555M): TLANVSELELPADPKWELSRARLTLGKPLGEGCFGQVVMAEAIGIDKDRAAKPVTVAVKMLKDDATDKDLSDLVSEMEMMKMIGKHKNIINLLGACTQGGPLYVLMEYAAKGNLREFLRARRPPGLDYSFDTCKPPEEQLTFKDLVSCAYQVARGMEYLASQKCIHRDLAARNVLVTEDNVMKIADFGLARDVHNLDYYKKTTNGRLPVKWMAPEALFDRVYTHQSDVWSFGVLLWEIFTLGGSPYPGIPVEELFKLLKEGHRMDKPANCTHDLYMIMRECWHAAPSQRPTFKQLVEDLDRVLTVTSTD
T5 sequence (P22455 445-753): as the sequence (P22455 445-753 V550L) above, with L106V counted along it
T7 sequence (P21802 453-770 V564F): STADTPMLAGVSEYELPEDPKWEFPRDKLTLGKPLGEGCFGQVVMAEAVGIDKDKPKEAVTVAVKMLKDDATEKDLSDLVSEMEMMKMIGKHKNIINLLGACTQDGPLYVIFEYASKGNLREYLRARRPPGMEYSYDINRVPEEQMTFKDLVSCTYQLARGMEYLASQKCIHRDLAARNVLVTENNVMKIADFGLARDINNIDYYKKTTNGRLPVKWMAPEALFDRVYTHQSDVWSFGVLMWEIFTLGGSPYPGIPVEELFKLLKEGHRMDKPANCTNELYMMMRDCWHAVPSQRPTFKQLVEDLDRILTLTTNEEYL
T12 sequence (P11362 456-765 V561M): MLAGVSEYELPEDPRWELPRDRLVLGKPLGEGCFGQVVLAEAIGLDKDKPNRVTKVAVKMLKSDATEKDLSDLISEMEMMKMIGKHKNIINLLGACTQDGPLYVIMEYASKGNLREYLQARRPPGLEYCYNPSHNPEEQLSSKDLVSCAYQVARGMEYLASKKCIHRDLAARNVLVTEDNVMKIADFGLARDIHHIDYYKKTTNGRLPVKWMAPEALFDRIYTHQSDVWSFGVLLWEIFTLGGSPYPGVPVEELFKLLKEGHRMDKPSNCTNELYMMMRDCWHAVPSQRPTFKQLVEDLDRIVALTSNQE
T1 sequence (P21802 453-770): as the sequence (P21802 453-770 V564F) above, with F112V counted along it
T10 sequence (P22607 450-758): as the sequence (P22607 450-758 V555M) above, with M106V counted along it
T2 sequence (P11362 456-765): as the sequence (P11362 456-765 V561M) above, with M106V counted along it

- IC50 [1]: 2.9 nM
- IC50 [2]: 6.4 nM
- IC50 [3]: 365 nM
- IC50 [4]: > 5000 nM
- potency against SRC(C277A) (in words) ([4]; kinase assay): lost their potency
- IC50 [5]: 21.1 nM
- mass shift of SRC protein (covalent adduct) [6]: mass shifts were observed
- fold decrease in potency, FGFR2(V564F) vs wild type ([7]; IC50 mutant relative to wild-type FGFR2): 95 fold
- IC50 [7, 16]: 276 nM
- fold decrease in potency, FGFR4(V550L) vs wild type ([8]; IC50 mutant relative to wild-type FGFR4): 12 fold
- IC50 [8]: 255 nM
- fold reduction of potency, FGFR3(V555M) vs wild type ([9]; IC50 mutant relative to wild-type FGFR3): 15 fold
- IC50 [9, 16]: 97 nM
- IC50 [10]: 6.7 nM
- IC50 [11]: 330 nM
- IC50 [12]: > 5000 nM
- IC50 [13]: 216 nM
Compound: C=CC(=O)Nc1ccc(CN2C(=O)N(c3cc(OC)cc(OC)c3)Cc3cnc(Nc4ccc(N5CCN(C)CC5)cc4)nc32)cc1 [FIIN-2]

Compound: CCN1CCN(c2ccc(Nc3cc(N(C)C(=O)Nc4c(Cl)c(OC)cc(OC)c4Cl)ncn3)cc2)CC1 [BGJ398, 3-(2,6-dichloro-3,5-dimethoxy-phenyl)-1-{6-[4-(4-ethyl-piperazin-1-yl)-phenylamino]-pyrimidin-4-yl}-1-methyl-urea]
- potency against FGFR gatekeeper mutations (in words) [14]: little potency

Compound: C=CC(=O)N1CC[C@H](n2nc(C#Cc3cc(OC)cc(OC)c3)c3c(N)ncnc32)C1 [TAS-120]
- most common adverse events [15]: hyperphosphatemia, diarrhea and constipation

Compound: C=CC(=O)N1CCN(CCCn2c(=O)c(-c3c(Cl)c(OC)cc(OC)c3Cl)cc3cnc(NC)nc32)CC1 [PRN1371, 8-(3-(4-Acryloylpiperazin-1-yl)propyl)-6-(2,6-dichloro-3,5-dimethoxyphenyl)-2-(methylamino)pyrido[2,3-d]pyrimidin-7(8H)-one]
- IC50 [3]: > 5000 nM
- potency against YES (in words) ([3]; kinase assay): negligible potency
- IC50 [4]: > 5000 nM
- IC50 [5]: 31.3 nM
- IC50 [8]: > 1000 nM
- effect on FGFR4(V550L) (in words) ([8]; kinase assay): little effect
- IC50 [11]: > 5000 nM
- potency against SRC (in words) ([11]; kinase assay): negligible potency
- potency against FGFR gatekeeper mutations (in words) [14]: little potency
- IC50 [12]: > 5000 nM

Source: article PMC9814232, “Structural insights into the potency and selectivity of covalent pan-FGFR inhibitors” (Communications Chemistry, 2022)
